This note sets out measurements from EP2557075A1, “New triazene compounds for treating cancer” (Trin Therapeutics GmbH, priority 2011, dated 2013).

The subject of series [1] is drei Pankreaskrebszelllinien. Nature of the series: IC50 of triazenes in three pancreatic cancer cell lines (Experiment 4). The series is classed as cell-based. From the text:
Verschiedene Triazene wie erfindungsgemäße Verbindungen nach Beispiel 1, DTIC, TMZ sowie Verbindungen nach Präparat 2 und 5 (entsprechend Verbindungen nach Präparat 2 und Beispiel 2a jeweils der WO 2009/004060) sowie Verbindungen nach Beispiel 2 und 33 der DE1793115 wurden in DMSO bzw. Wasser gelöst.

A short description of series [2]: Formulation trials for intravenous application (Experiment 8). The class given is physicochemical. On the procedure: Um die Testergebnisse aus Experiment 7 in einem in-vivo Xenograft Modell zu bestätigen, wurden Formulierungsversuche mit Verbindungen nach Beispiel 1 sowie der Verbindung nach Beispiel 2 aus DE 1 793 1 15, als den wirksamsten Verbindungen aus Experiment 7, unternommen.
15mg der Verbindung nach Beispiel 1 werden in 30µL DMSO ([…]) gelöst. Diese Stocklösung wird in 270µL 1 M Na2CO3 Lösung gegeben und nur leicht geschwenkt, nicht aber mittels Ultraschallbad behandelt.
Gleichermaßen sollte eine Formulierung für Verbindungen nach Beispiel 2 aus DE 1 7 93 1 15 hergestellt werden. Hier wurden 15µL der Verbindung nach Beispiel 2 vorgelegt. Bei einer Dichte von 1,08g/ml entsprach dies 16,2mg der Verbindung nach Beispiel 2. Dazu wurden 32,4µL DMSO gegeben. […] Sodann wurden 90µL einer frisch hergestellten 1 molaren Na2CO3 Lösung vorgelegt und 10µL der Lösung der Verbindung nach Beispiel 2 hinzugegeben. […] Auch mittels Ultraschallbad konnte keine Auflösung des erzeugten Niederschlags herbeiführen.

The next series relates to HepG2. The series can be described thus: Intracellular uptake of triazenes in HepG2 cells (Experiment 2). The series is classed as in vitro ADME. The note with it: HepG2, 50.000ng/ml, 10.000ng/ml O6-Benzylguanin, 2, 4 und 20 Stunden. On the procedure:
(§1) Es wird gezeigt, dass Verbindungen nach Beispiel 1 schneller und in größerer Menge intrazellulär aufgenommen werden als die als Vergleichssubstanzen eingesetzten Verbindungen nach Präparat 2 und 5 (entsprechend Verbindungen nach Präparat 2 und Beispiel 2a jeweils der WO 2009/004060).
(§2) Die getesteten Verbindungen wurden wie folgt gelöst: • Erfindungsgemäße Verbindung: • Beispiel 1: in 20 mg/ml DMSO
(§3) Vergleichssubstanzen: • Präparat 2: in 50mg/ml DMSO, • Präparat 5: in 50mg/ml Wasser.
(§4) Alle drei Substanzen wurden in einer Dosis von 50.000ng/ml auf 2 x 10^7 HepG2 und HCT-8 sowie 2 x 10^6-MDA-MB231 Zellen gegeben. Als Zellkulturmedium wurde 100% (MDA-MB231: 50%) fötales Kälberserum (FCS) verwendet. Zudem wurde bei den Versuchen mit HepG2 und HCT-8 noch 10.000ng/ml O6-Benzylguanin zugesetzt. Für den Versuch wurde die intrazelluläre Konzentration von Ausgangsprodukt und Metaboliten nach 2, 4 und 20 (HepG2), 2 und 3,5 und 20 Stunden (MDA-MB231) und 2,4, 24 und 48 Stunden (HCT-8) Inkubationszeit ermittelt. Alle drei Substanzen zeigten in Kontrollversuchen mit 100% FCS nach 40 Stunden metabolische Stabilität.

The test system of another series is HCT-8. Nature of the series: Intracellular uptake of triazenes in HCT-8 cells (Experiment 2). The class given is in vitro ADME. The note with it: HCT-8, 50.000ng/ml, 10.000ng/ml O6-Benzylguanin, first two time points (2, 4 Stunden). On the procedure: as §1, §2, §3, §4
In series [3] the test system is HL-60. Nature of the series: Growth inhibition (IC50) in leukaemic HL-60 cells (Experiment 7). The series is classed as cell-based. The note with it: for IC50: Homo sapiens, HL-60, 24 Stunden. An excerpt:
Hämatologische Zellen (CEM, HL-60) wurden für 24 Stunden mit unterschiedlichen Dosen verschiedener Triazenverbindungen inkubiert, um die IC50 zu bestimmen.

The next series concerns MDA-MB231 Zellen. Nature of the series: Intracellular uptake of triazenes in MDA-MB231 cells (Experiment 2). The class given is in vitro ADME. The note with it: MDA-MB231, 50.000ng/ml, 50% FCS, 2, 3,5 und 20 Stunden. The procedure: as §1, §2, §3, §4
Series [4] has as its system MCF-7, MB-231, HepG2, HCT8, DU-145. The series can be described thus: IC50 of triazenes in various tumour cell lines (Experiment 3). The class given is cell-based. From the text: Die nachfolgenden Experimente 3 und 4 zeigen, dass die erfindungsgemäßen neuen Triazenverbindungen eine vergleichbare Anti-Tumorwirkung (IC50) in zahlreichen Krebszelllinien wie der HepG2 (Leber), HCT8 (Darm), DU-145 (Prostata), MCF-7 und MDA-MB-231 (Brust) und MiaPaca-2 (Bauchspeicheldrüse) bei bis zu 100fach niedrigeren Konzentrationen zeigen als vergleichbare Triazene wie DTIC, TMZ oder Substanzen wie sie in der WO 2009/004060 und der DE 1 7931 1 5 beschrieben sind.
Verschiedene Triazene wie erfindungsgemäße Verbindungen nach Beispiel 1, DTIC, TMZ sowie Verbindungen nach Präparat 2 und 5 (entsprechend Verbindungen nach Präparat 2 und Beispiel 2a jeweils der WO 2009/004060) sowie Verbindungen nach Beispiel 33 der DE1793115 wurden in DMSO bzw. Wasser gelöst.

Series [5] deals with HL-60. Nature of the series: Cell cycle analysis by flow cytometry in HL-60 (Experiment 9). The series is classed as cell-based. From the text: Die Progression durch den Zellzyklus ist charakterisiert durch die mitotische Teilung (M-Phase) und der sich anschließenden Interphase, Die Interphase gliedert sich wiederum in die G1 -, S- und G2-Phase, In der G1-Phase beginnt die Zelle zu wachsen und es liegt ein vollständiger Chromosomensatz vor. In der S-Phase erfolgt die Replikation der DNA, wodurch an ihrem Ende der zweifache Chromosomensatz vorliegt. In der G2-Phase bereitet sich die Zelle auf die mitotische Teilung vor, an dessen Ende wieder der einfache Chromosomensatz vorhanden ist. Zusätzlich zu diesen Phasen kann eine sog. sub-G1-Phase vorliegen. Diese ist charakterisiert durch fragmentierte, apoptotische Zellen, die durch degradierte DNA charakterisiert ist. In welchem Stadium sich die Zelle befindet bzw. arretiert sein kann, lässt sich mittels Durchflusszytometrie bestimmen (Brockhoff et al. 2007; Lenz et al. 2007).
Zellkulturen von MDA-MB231 bzw. HL-60 wurden mit der IC50 (MDA-MB231) bzw. IC90 (HL-60) der beiden Test-Substanzen für bis zu 72 Stunden inkubiert und auf die Zellzyklusentwicklung hin untersucht.

The structures appear in SMILES notation. “Also recorded” adds a separate entry of the source. Read-outs that look alike come from different tables or passages of the source.

As to `CN(C)N=Nc1ccc(C(=O)c2ccc(O)cc2)cc1` [Beispiel 1], the “antitumorale Aktivität (IC50) compared with Vergleichssubstanzen” value in series [1] is given as “deutliche Überlegenheit”. In addition, in series [2] (15mg in 30µL DMSO + 270µL 1 M Na2CO3, Raumtemperatur), the “Stabilität der gebrauchsfertigen Lösung” value is “unter Raumtemperatur stabil”. In series [2] (DMSO stock solution given into 1 M Na2CO3 Lösung), the “Löslichkeit in der Formulierung” value is reported as “vollständig löst”. For the same compound, the “stabile und verträgliche Formulierung” value in series [2] (Lösungsmittel wie Cremophor, PEG400, Tween80, Poloxamer) is listed as “nicht erreicht werden konnte”. Moreover, the “intrazelluläre Konzentration vs. Vergleichssubstanzen” value in the series on HepG2 was “deutlich schneller und in höheren Konzentrationen intrazellulär nachweisbar”; with HCT-8 it was “deutlich schneller und für die ersten beiden Messpunkte auch in höherer Konzentration intrazellulär nachweisbar”; in the series on MDA-MB231 Zellen, “deutlich schneller und in höheren Konzentrationen intrazellulär nachweisbar”. In addition, in the series with HL-60 [3] (CEM und HL-60, vs. Triazenverbindungen aus WO2009/004060 und Beispiel 33 aus DE 1793115), the “Wachstumshemmung in x-fach niedrigerer Konzentration” value is given as ≤ 100 -fach. Besides, the half-maximal inhibitory concentration (IC50) in the series with HL-60 [3] (mean of Exp. 1-5, read-out: IC50 Mittelwert) was 16.3 µM; in the series on HL-60 [3] (read-out: IC50 Exp. 1) it was 12.6 µM; with HL-60 [3] (read-out: IC50 Exp. 2) it was 15.2 µM; with HL-60 [3] (read-out: IC50 Exp. 3) it was 24.2 µM; in the series on HL-60 [3] (read-out: IC50 Exp. 4), 16 µM; in the series with HL-60 [3] (read-out: IC50 Exp. 5), 13.4 µM. Besides, in series [4], the “antitumorale Aktivität (IC50) compared with other triazenes” value is given as “deutlich wirksamer; also recorded: höhere antitumorale Aktivität”. Besides, the “Zellen in der G1 Phase” value in the series on HL-60 [5] (HL-60, IC90, nach 24 Stunden) was below 2%. Further, in the series on HL-60 [5] (HL-60, IC90, nach 24 Stunden), the “eingesetzte Zellen tot” value was around 40%. For the same compound, the Zellzyklus result with HL-60 [5] (HL-60, incubated with IC90, nach 12 bzw. 24 Stunden) is given as “ausgeprägten G2 Arrest”.

As a reminder, the IC50 is the point on the concentration scale where inhibition reaches its midpoint.
